Molecular target: GLP-1R (Homo sapiens, UniProt P43220)
Assay: GLP-1R agonistic activity by One-Lite luciferase assay in HEK293-GLP-1R-luc cells (Example 59)
Type: cell-based
Conditions: 6 h incubation, read-out: cAMP EC50
Method: The agonistic activities of the compounds of the present disclosure on GLP-1R were evaluated by detecting the generation of cAMP.
• (1) Cell line: HEK293-GLP-1R-luc Stable Cell Line (Cobioer, CBP71117); • (2) Culture medium: DMEM+10% FBS (Gibco); • (3) Kit: One-Lite™ kit Luciferase Assay System (Vazyme). 2. Experimental Procedures • (1) HEK293-GLP1R cells were inoculated in a 96-well plate at a density of 30000 cells per well; • (2) 10× working solution of each compound was formulated; • (3) 10 μL of 10× working solution of each compound was added to corresponding well and incubated at 37° C. for 6 h; • (4) 100 μL of One-Lite Luciferase Assay Substrate formulated using One-Lite Luciferase Assay Buffer was added to each well; • (5) The plate was incubated at room temperature for 3 min; • (6) The plate was read by a multimode microplate reader to detect chemiluminescence. 3. Data Analysis • (1) % Activity was calculated by the following formula: % Activity=100−(Signalcmpd−SignalAve-PC)/(SignalAve-VC−SignalAve-PC)×100 • (2) The dose-response curve was plotted to calculate EC50: Y=Bottom+(Top−Bottom)/(1+10^(Log EC50−X)*HillSlope)) • X: log of agonist concentration; Y: Activity. 4. Experimental Results

Sequence of GLP-1R (P43220 24-463): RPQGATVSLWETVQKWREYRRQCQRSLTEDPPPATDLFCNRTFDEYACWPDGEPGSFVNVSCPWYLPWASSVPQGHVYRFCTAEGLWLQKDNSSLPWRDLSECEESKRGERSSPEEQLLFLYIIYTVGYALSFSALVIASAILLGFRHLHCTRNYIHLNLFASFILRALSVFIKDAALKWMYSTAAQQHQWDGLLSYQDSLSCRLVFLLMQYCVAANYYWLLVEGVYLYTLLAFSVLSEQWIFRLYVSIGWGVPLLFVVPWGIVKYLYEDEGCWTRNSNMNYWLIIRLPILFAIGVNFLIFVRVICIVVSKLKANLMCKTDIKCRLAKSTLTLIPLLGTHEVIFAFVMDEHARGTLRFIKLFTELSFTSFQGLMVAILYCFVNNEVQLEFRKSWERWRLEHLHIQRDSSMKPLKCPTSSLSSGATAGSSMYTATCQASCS

EC50 [nM]	Compound
≤ 20	Cc1cc(-n2nc3c(c2-n2ccn(-c4ccc5c(cnn5C)c4F)c2=O)[C@H](C)N(C(=O)c2cc4cc([C@H]5CCOC(C)(C)C5)ccc4n2[C@@]2(c4noc(=O)[nH]4)C[C@@H]2C)CC32CCN(C(=O)C(F)(F)F)CC2)cc(C)c1F [Compound 155]
≤ 20	Cc1cc(-n2nc3c(c2-n2ccn(-c4ccc5c(cnn5C)c4F)c2=O)[C@H](C)N(C(=O)c2cc4cc([C@H]5CCOC(C)(C)C5)ccc4n2[C@@]2(c4noc(=O)[nH]4)C[C@@H]2C)CC32CCN(C=O)C2)cc(C)c1F (stereo partly shown) [Compound 83]
≤ 20	C[C@H]1C[C@]1(c1noc(=O)[nH]1)n1c(C(=O)N2C3CCCC2c2c(nn(-c4ccc(F)c(C5CC5)c4)c2-n2ccn(-c4ccc5c(cnn5C)c4F)c2=O)C3)cc2cc([C@H]3CCOC(C)(C)C3)ccc21 (stereo partly shown) [Compound 151]
≤ 20	Cc1cc(-n2nc3c(c2-n2ccn(-c4ccc5c(cnn5C)c4F)c2=O)[C@H](C)N(C(=O)c2cc4cc([C@H]5CCOC(C)(C)C5)ccc4n2[C@@]2(c4noc(=O)[nH]4)C[C@@H]2C)CC32CCC(O)C2)cc(C)c1F (stereo partly shown) [Compound 209]
≤ 20	Cc1cc(-n2nc3c(c2-n2ccn(-c4ccc5c(cnn5C)c4F)c2=O)[C@H](C)N(C(=O)c2cc4cc([C@H]5CCOC(C)(C)C5)ccc4n2[C@@]2(c4noc(=O)[nH]4)C[C@@H]2C)CC32CCSCC2)cc(C)c1F [Compound 188]
≤ 20	Cc1cc(-n2nc3c(c2-n2ccn(-c4ccc5c(cnn5C)c4F)c2=O)[C@H](C)N(C(=O)c2cc4cc([C@H]5CCOC(C)(C)C5)ccc4n2[C@@]2(c4noc(=O)[nH]4)C[C@@H]2C)CC32CS(=O)(=O)C2)cc(C)c1F [Compound 191]
100 to 300	Cc1cc(-n2nc3c(c2-n2ccn(-c4ccc5c(cnn5C)c4F)c2=O)[C@H](C)N(C(=O)c2cc4cc(C5CCOCC5)ccc4n2C2(c4noc(=O)[nH]4)CC2)CC32CC2)cc(C)c1F [Compound 174]
20 to 100	Cc1cc(-n2nc3c(c2-n2ccn(-c4ccc5c(cnn5C)c4F)c2=O)[C@H](C)N(C(=O)c2cc4cc(C5CCOC(C)(C)C5)ccn4c2C2(c4noc(=O)[nH]4)CC2)CC32CC2)cc(C)c1F (single isomer, unassigned) [Compound 185-B]
≤ 20	Cc1cc(-n2nc3c(c2-n2ccn(-c4ccc5c(cnn5C)c4F)c2=O)[C@H](C)N(C(=O)c2cc4cc([C@H]5CCOC(C)(C)C5)ccc4n2[C@@]2(c4noc(=O)[nH]4)C[C@@H]2C)CC32C[S+]([O-])C2)cc(C)c1F (stereo partly shown) [Compound 190]
≤ 20	COC(=O)N1CCC2(CC1)CN(C(=O)c1cc3cc([C@H]4CCOC(C)(C)C4)ccc3n1[C@@]1(c3noc(=O)[nH]3)C[C@@H]1C)[C@@H](C)c1c2nn(-c2cc(C)c(F)c(C)c2)c1-n1ccn(-c2ccc3c(cnn3C)c2F)c1=O [Compound 159]
≤ 20	Cc1cc(-n2nc3c(c2-n2ccn(-c4ccc5c(ccn5C)c4F)c2=O)[C@H](C)N(C(=O)c2cc4cc([C@H]5CCOC(C)(C)C5)ccc4n2[C@@]2(c4noc(=O)[nH]4)C[C@@H]2C)CC32CCCNC2)cc(C)c1F (single isomer, unassigned) [Compound 51-B]
≤ 20	Cc1cc(-n2nc3c(c2-n2ccn(-c4ccc5c(cnn5C)c4F)c2=O)[C@H](C)N(C(=O)c2cc4cc([C@H]5CCOC(C)(C)C5)ccc4n2[C@@]2(c4noc(=O)[nH]4)C[C@@H]2C)CC32CCC(F)(F)C2)cc(C)c1F (stereo partly shown) [Compound 212]
≤ 20	COC1CC2(CC1OC)CN(C(=O)c1cc3cc([C@H]4CCOC(C)(C)C4)ccc3n1[C@@]1(c3noc(=O)[nH]3)C[C@@H]1C)[C@@H](C)c1c2nn(-c2cc(C)c(F)c(C)c2)c1-n1ccn(-c2ccc3c(cnn3C)c2F)c1=O (stereo partly shown) [Compound 214]
≤ 20	Cc1cc(-n2nc3c(c2-n2ccn(-c4ccc5c(cnn5C)c4F)c2=O)[C@H](C)N(C(=O)c2cc4cc([C@H]5CCOC(C)(C)C5)ccc4n2[C@@]2(c4noc(=O)[nH]4)C[C@@H]2C)CC32CCNC2)cc(C)c1F (stereo partly shown) [Compound 195]
≤ 20	Cc1cc(-n2nc3c(c2-n2ccn(-c4ccc5c(cnn5C)c4F)c2=O)[C@H](C)N(C(=O)c2cc4cc([C@H]5CCOC(C)(C)C5)ccc4n2[C@@]2(c4noc(=O)[nH]4)C[C@@H]2C)CC32CN(C(=O)C(F)(F)F)C2)cc(C)c1F [Compound 167]
20 to 100	Cc1cc(-n2nc3c(c2-n2ccn(-c4ccc5c(cnn5C)c4F)c2=O)[C@H](C)N(C(=O)c2cc4cc([C@H]5CCOC(C)(C)C5)ccc4n2[C@@]2(c4noc(=O)[nH]4)C[C@@H]2C)CC32CCC(F)CC2)cc(C)c1F (stereo partly shown) [Compound 201]
20 to 100	Cc1cc(-n2nc3c(c2-n2ccn(-c4ccc5c(cnn5C)c4F)c2=O)[C@H](C)N(C(=O)c2cc4cc(C5CCOCC5)ccc4n2[C@@]2(c4noc(=O)[nH]4)C[C@@H]2C)CC32CC2)cc(C)c1F [Compound 175]

EC50 [nM]	Compound
≤ 20	CC(=O)N1CCC2(CC1)CN(C(=O)c1cc3cc([C@H]4CCOC(C)(C)C4)ccc3n1[C@@]1(c3noc(=O)[nH]3)C[C@@H]1C)[C@@H](C)c1c2nn(-c2cc(C)c(F)c(C)c2)c1-n1ccn(-c2ccc3c(cnn3C)c2F)c1=O [Compound 91]
≤ 20	Cc1cc(-n2nc3c(c2-n2ccn(-c4ccc5c(cnn5C)c4F)c2=O)[C@H](C)N(C(=O)c2cc4cc([C@H]5CCOC(C)(C)C5)ccc4n2[C@@]2(c4noc(=O)[nH]4)C[C@@H]2C)CC32CCCN2)cc(C)c1F (stereo partly shown) [Compound 31]
≤ 20	CC(=O)N1CC2(C1)CN(C(=O)c1cc3cc([C@H]4CCOC(C)(C)C4)ccc3n1[C@@]1(c3noc(=O)[nH]3)C[C@@H]1C)[C@@H](C)c1c2nn(-c2cc(C)c(F)c(C)c2)c1-n1ccn(-c2ccc3c(cnn3C)c2F)c1=O [Compound 166]
≤ 20	Cc1cc(-n2nc3c(c2-n2ccn(-c4ccc5c(cnn5C)c4F)c2=O)[C@H](C)N(C(=O)c2cc4cc([C@H]5CCOC(C)(C)C5)ccc4n2[C@@]2(c4noc(=O)[nH]4)C[C@@H]2C)CC32CC(C)(O)C2)cc(C)c1F (stereo partly shown) [Compound 179]
≤ 20	Cc1cc(-n2nc3c(c2-n2ccn(-c4ccc5c(cnn5C)c4F)c2=O)[C@H](C)N(C(=O)c2cc4cc([C@H]5CCOC(C)(C)C5)ccc4n2[C@@]2(c4noc(=O)[nH]4)C[C@@H]2C)CC32CCN(C(N)=O)CC2)cc(C)c1F [Compound 162]
≤ 20	COC1CC2(C1)CN(C(=O)c1cc3cc([C@H]4CCOC(C)(C)C4)ccc3n1[C@@]1(c3noc(=O)[nH]3)C[C@@H]1C)[C@@H](C)c1c2nn(-c2cc(C)c(F)c(C)c2)c1-n1ccn(-c2ccc3c(cnn3C)c2F)c1=O (stereo partly shown) [Compound 184]
≤ 20	COCC(=O)N1CCC2(CC1)CN(C(=O)c1cc3cc([C@H]4CCOC(C)(C)C4)ccc3n1[C@@]1(c3noc(=O)[nH]3)C[C@@H]1C)[C@@H](C)c1c2nn(-c2cc(C)c(F)c(C)c2)c1-n1ccn(-c2ccc3c(cnn3C)c2F)c1=O [Compound 158]
20 to 100	Cc1cc(-n2nc3c(c2-n2ccn(-c4ccc5c(cnn5C)c4F)c2=O)[C@H](C)N(C(=O)c2cc4cc(N5CCOC(C)(C)C5)ccc4n2[C@@]2(c4noc(=O)[nH]4)C[C@@H]2C)CC32CC2)cc(C)c1F [Compound 173]
≤ 20	Cc1cc(-n2nc3c(c2-n2ccn(-c4ccc5c(cnn5C)c4F)c2=O)[C@H](C)N(C(=O)c2cc4cc([C@H]5CCOC(C)(C)C5)ccc4n2[C@@]2(c4noc(=O)[nH]4)C[C@@H]2C)CC32CCN(C=O)CC2)cc(C)c1F [Compound 64]
≤ 20	CCOC1CC2(C1)CN(C(=O)c1cc3cc([C@H]4CCOC(C)(C)C4)ccc3n1[C@@]1(c3noc(=O)[nH]3)C[C@@H]1C)[C@@H](C)c1c2nn(-c2cc(C)c(F)c(C)c2)c1-n1ccn(-c2ccc3c(cnn3C)c2F)c1=O (stereo partly shown) [Compound 187]
20 to 100	Cc1cc(-n2nc3c(c2-n2ccn(-c4ccc5c(cnn5C)c4F)c2=O)[C@H](C)N(C(=O)c2cc4cc([C@H]5CCOC(C)(C)C5)ccc4n2[C@@]2(c4noc(=O)[nH]4)C[C@@H]2C)CC32CCCCC2)cc(C)c1F [Compound 37]
≤ 20	Cc1cc(-n2nc3c(c2-n2ccn(-c4ccc5c(cnn5C)c4F)c2=O)[C@H](C)N(C(=O)c2cc4cc([C@H]5CCOC(C)(C)C5)ccc4n2[C@@]2(c4noc(=O)[nH]4)C[C@@H]2C)CC32CCC(O)CC2)cc(C)c1F (stereo partly shown) [Compound 199]
≤ 20	Cc1cc(-n2nc3c(c2-n2ccn(-c4ccc5c(cnn5C)c4F)c2=O)[C@H](C)N(C(=O)c2cc4cc([C@H]5CCOC(C)(C)C5)ccc4n2[C@@]2(c4noc(=O)[nH]4)C[C@@H]2C)CC32CCC(F)C2)cc(C)c1F (stereo partly shown) [Compound 211]
≤ 20	[2H]C([2H])([2H])OC1CC2(C1)CN(C(=O)c1cc3cc([C@H]4CCOC(C)(C)C4)ccc3n1[C@@]1(c3noc(=O)[nH]3)C[C@@H]1C)[C@@H](C)c1c2nn(-c2cc(C)c(F)c(C)c2)c1-n1ccn(-c2ccc3c(cnn3C)c2F)c1=O (stereo partly shown) [Compound 207]
≤ 20	Cc1cc(-n2nc3c(c2-n2ccn(-c4ccc5c(cnn5C)c4F)c2=O)[C@H](C)N(C(=O)c2cc4cc([C@H]5CCOC(C)(C)C5)ccc4n2[C@@]2(c4noc(=O)[nH]4)C[C@@H]2C)CC32CC(N)C2)cc(C)c1F (stereo partly shown) [Compound 183]
≤ 20	Cc1cc(-n2nc3c(c2-n2ccn(-c4ccc5c(cnn5C5CC5)c4F)c2=O)[C@H](C)N(C(=O)c2cc4cc([C@H]5CCOC(C)(C)C5)ccc4n2[C@@]2(c4noc(=O)[nH]4)C[C@@H]2C)CC32CC2)cc(C)c1F [Compound 221]
≤ 20	Cc1cc(-n2nc3c(c2-n2ccn(-c4ccc5c(cnn5C)c4F)c2=O)[C@H](C)N(C(=O)c2cc4cc([C@H]5CCOC(C)(C)C5)ccc4n2[C@@]2(c4noc(=O)[nH]4)C[C@@H]2C)CC32CC(O)C(O)C2)cc(C)c1F (stereo partly shown) [Compound 213]

Reference: US12419874B2, “GLP-1R agonist compound and use thereof” (Chongqing Pharmaceutical Research Institute Co., Ltd., priority 2024, dated 2025)
